± gives the expanded uncertainty stated by the source.
Conditions: 101.33 kPa, Liquid, Vibrating tube method

SMILES | mass density (298.15 K) | mass density (303.15 K) | mass density (308.15 K) | mass density (313.15 K) | mass density (318.15 K) | mass density (323.15 K) | mass density (328.15 K) | mass density (333.15 K) | mass density (338.15 K) | mass density (343.15 K) | mass density (348.15 K) | mass density (353.15 K) | mass density (358.15 K) | mass density (363.15 K) | mass density (368.15 K)
C[n+]1ccn(CCCO)c1.N#CN=C=[N-] [1-(3-hydroxypropyl)-3-methylimidazolium dicyanamide] | 1171 ± 11 kg/m3 | 1167.8 ± 11 kg/m3 | 1164.6 ± 11 kg/m3 | 1161.4 ± 11 kg/m3 | 1158.2 ± 11 kg/m3 | 1155.1 ± 11 kg/m3 | 1152 ± 11 kg/m3 | 1148.9 ± 10 kg/m3 | 1145.8 ± 10 kg/m3 | 1142.7 ± 10 kg/m3 | 1139.6 ± 10 kg/m3 | 1136.6 ± 10 kg/m3 | 1133.6 ± 10 kg/m3 | 1130.6 ± 10 kg/m3 | 1127.6 ± 10 kg/m3
C[N+]1(CCCO)CCOCC1.N#C[N-]C#N [4-(3-hydroxypropyl)-4-methylmorpholinium dicyanamide] | 1175.4 ± 3.7 kg/m3 | 1172.4 ± 3.7 kg/m3 | 1169.4 ± 3.7 kg/m3 | 1166.5 ± 3.7 kg/m3 | 1163.6 ± 3.7 kg/m3 | 1160.7 ± 3.7 kg/m3 | 1157.9 ± 3.7 kg/m3 | 1155 ± 3.7 kg/m3 | 1152.1 ± 3.6 kg/m3 | 1149.3 ± 3.6 kg/m3 | 1146.5 ± 3.6 kg/m3 | 1143.7 ± 3.6 kg/m3 | 1141 ± 3.6 kg/m3 | 1138.2 ± 3.6 kg/m3 | 1135.5 ± 3.6 kg/m3

Source: the NIST ThermoML archive (doi:10.1016/j.jct.2017.11.017)
